Reference: US20180208605A1, “Substituted Aza Compounds as IRAK-4 Inhibitors” (AURIGENE DISCOVERY TECHNOLOGIES LIMITED, priority 2015, published 2018)
Counter-ions that a name gives are not always drawn. Like-named read-outs stand apart in the source and are kept apart here.

Target: T1, recombinant IRAK-4 kinase (Homo sapiens, UniProt Q9NWZ3)
T1 construct: purchased Millipore, USA
T1 sequence (Q9NWZ3 1-460): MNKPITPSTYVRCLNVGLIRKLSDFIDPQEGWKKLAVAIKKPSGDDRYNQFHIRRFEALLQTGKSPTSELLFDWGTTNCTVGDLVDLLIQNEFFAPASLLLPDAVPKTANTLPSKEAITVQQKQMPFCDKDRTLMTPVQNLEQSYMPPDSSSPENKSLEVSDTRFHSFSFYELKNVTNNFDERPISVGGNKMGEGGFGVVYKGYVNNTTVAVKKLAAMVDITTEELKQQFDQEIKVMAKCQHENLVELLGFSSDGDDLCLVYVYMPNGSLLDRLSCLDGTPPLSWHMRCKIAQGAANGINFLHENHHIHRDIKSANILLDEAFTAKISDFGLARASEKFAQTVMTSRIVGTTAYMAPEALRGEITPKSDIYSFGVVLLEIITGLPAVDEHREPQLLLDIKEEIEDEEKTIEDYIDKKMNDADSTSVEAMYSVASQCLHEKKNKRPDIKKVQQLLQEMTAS
Assay: IRAK-4 Biochemical Assay (TR-FRET, percent inhibition)
Experimental: Compounds were tested for their potential to inhibit IRAK-4 enzyme in a TR-FRET assay using recombinant IRAK-4 kinase from Millipore, USA. The assay buffer was 50 mM Tris-HCl pH 7.5, 20 mM MgCl2, 1 mM EGTA, 2 mM DTT, 3 mM MnCl2 and 0.01% Tween 20.5 ng of IRAK-4 kinase was used for the assay. After pre-incubation of enzyme with test compound for 30 minutes at room temperature, a substrate mixture containing 100 nM Biotin Histone H3 (Millipore, USA) and 20 μM ATP (Sigma, USA) was added and the reaction was incubated for 30 min. Post incubation, the reaction was stopped by the addition of stop mix containing 40 mM EDTA, 1 nM of Europium-Anti-Phospho-Histone H3 (Ser10) antibody (Perkin Elmer, USA) and 20 nM SureLight Allophycocyanin-Streptavidin (Perkin Elmer, USA). The fluorescence emission at 615 nm and 665 nm were measured at an excitation of 340 nm and the percent inhibition was estimated from the ratio of the fluorescence intensities [(F665/F615)×10000].

[1] = read-out: % inhibition of IRAK-4 @0.1 μM, compound at 0.1 μM, TR-FRET, 20 μM ATP, 100 nM Biotin Histone H3
[2] = read-out: % inhibition of IRAK-4 @ 1 μM, compound at 1 μM, TR-FRET, 20 μM ATP, 100 nM Biotin Histone H3

| SMILES | inhibition at 0.1 µM [1] | inhibition at 1 µM [2] | inhibition at 0.1 µM (read-out: % inhibition of IRAK-4 @0.1 μM) | inhibition at 1 µM (read-out: % inhibition of IRAK-4 @ 1 μM) |
| --- | --- | --- | --- | --- |
| NCC(=O)N[C@H]1CCN(c2cccc(C(=O)Nc3cc4sc(N5CCOCC5)nc4nc3N3CCCCC3)n2)C1 [Example 27, (S)-6-(3-(2-aminoacetamido)pyrrolidin-1-yl)-N-(2-morpholino-5-(piperidin-1-yl)thiazolo[4,5-b]pyridin-6-yl)picolinamide] | 95% | 97% |  |  |
| O=C(Nc1cc2sc(N3CCOCC3)nc2nc1N1CCCCC1)c1cccc(N2CCC[C@H](O)C2)n1 [Example 29, (S)-6-(3-hydroxypiperidin-1-yl)-N-(2-morpholino-5-(piperidin-1-yl)thiazolo[4,5-b]pyridin-6-yl)picolinamide] | 98% | 99% |  |  |
| COC1CCN(c2cccc(C(=O)Nc3cc4sc(N5CCOCC5)nc4nc3N3CCCCC3)n2)CC1 [Example 31, 6-(4-methoxypiperidin-1-yl)-N-(2-morpholino-5-(piperidin-1-yl)thiazolo[4,5-b]pyridin-6-yl)picolinamide] | 90% | 98% |  |  |
| O=C(Nc1cc2sc(N3CCOCC3)nc2nc1N1CCCCC1)c1cccc(N2CCC(CO)CC2)n1 [Example 32, 6-(4-(hydroxymethyl)piperidin-1-yl)-N-(2-morpholino-5-(piperidin-1-yl)thiazolo[4,5-b]pyridin-6-yl)picolinamide] | 93% | 95% |  |  |
| O=C(Nc1cc2sc(N3CCOCC3)nc2nc1N1CCCCC1)c1cccc(N2CCO[C@@H](CO)C2)n1 [Example 33, (R)-6-(2-(hydroxymethyl)morpholino)-N-(2-morpholino-5-(piperidin-1-yl)thiazolo[4,5-b]pyridin-6-yl)picolinamide] | 95% | 97% |  |  |
| O=C(Nc1cc2sc(N3CCOCC3)nc2nc1N1CCCCC1)c1cccc(N2CCC(CCO)CC2)n1 [Example 35, 6-(4-(2-hydroxyethyl)piperidin-1-yl)-N-(2-morpholino-5-(piperidin-1-yl)thiazolo[4,5-b]pyridin-6-yl)picolinamide] | 92% | 95% |  |  |
| NCC(=O)O[C@H]1CCN(c2cccc(C(=O)Nc3cc4sc(N5CCOCC5)nc4nc3N3CCCCC3)n2)C1 [Example 36, (S)-1-(6-((2-morpholino-5-(piperidin-1-yl)thiazolo[4,5-b]pyridin-6-yl)carbamoyl)pyridin-2-yl)pyrrolidin-3-ylglycinate 2,2,2-trifluoroacetate] | 94% | 99% |  |  |
| O=C(Nc1cc2sc(N3CCOCC3)nc2nc1N1CCCCC1)c1cccc(NCC2CCOCC2)n1 [Example 37, N-(2-morpholino-5-(piperidin-1-yl)thiazolo[4,5-b]pyridin-6-yl)-6-(((tetrahydro-2H-pyran-4-yl)methyl)amino)picolinamide] | 75% | 95% |  |  |
| Cc1cc(-c2cccc(C(=O)Nc3cc4sc(N5CCOCC5)nc4nc3N3CCC[C@@H](O)C3)n2)ccn1 [Example 41, (R)-N-(5-(3-hydroxypiperidin-1-yl)-2-morpholinothiazolo[4,5-b]pyridin-6-yl)-2′-methyl-[2,4′-bipyridine]-6-carboxamide] | 92% | 98% |  |  |
| Cc1nc2nc(N3CCOCC3)sc2cc1NC(=O)c1cccc(N2CCC(O)C2)n1 (stereo not drawn) [Example 43, 6-(3-hydroxypyrrolidin-1-yl)-N-(5-methyl-2-morpholinothiazolo[4,5-b]pyridin-6-yl)picolinamide] | 50% | 92% |  |  |
| O=C(Nc1cc2sc(N3CCOCC3)nc2nc1C(F)(F)F)c1cccc(N2CCC(O)C2)n1 (stereo not drawn) [Example 44, 6-(3-hydroxypyrrolidin-1-yl)-N-(2-morpholino-5-(trifluoromethyl)thiazolo[4,5-b]pyridin-6-yl)picolinamide] | 90% | 96% |  |  |
| O=C(Nc1cc2sc(N3CCOCC3)nc2nc1N1CCCCC1)c1cccc(N2CC3CC2CO3)n1 (stereo not drawn) [Example 45, 6-(2-oxa-5-azabicyclo[2.2.1]heptan-5-yl)-N-(2-morpholino-5-(piperidin-1-yl)thiazolo[4,5-b]pyridin-6-yl)picolinamide] | 95% | 97% |  |  |
| O=C(Nc1cc2sc(N3CCOCC3)nc2nc1N1CCCCC1)c1cccc(NC2CCC(CO)CC2)n1 (stereo not drawn) [Example 46, 6-((4-(hydroxymethyl)cyclohexyl)amino)-N-(2-morpholino-5-(piperidin-1-yl)thiazolo[4,5-b]pyridin-6-yl)picolinamide] | 75% | 94% |  |  |
| CCOP(=O)(OCC)O[C@H]1CCN(c2cccc(C(=O)Nc3cc4sc(N5CCOCC5)nc4nc3N3CCCCC3)n2)C1 [Example 47, (S)-diethyl (1-(6-((2-morpholino-5-(piperidin-1-yl)thiazolo[4,5-b]pyridin-6-yl)carbamoyl)pyridin-2-yl)pyrrolidin-3-yl)phosphate] |  |  | 18% | 58% |
| COC(=O)C1CN(c2cccc(C(=O)Nc3cc4sc(N5CCOCC5)nc4nc3N3CCCCC3)n2)C(=O)N1 (stereo not drawn) [Example 48, methyl 1-(6-((2-morpholino-5-(piperidin-1-yl)thiazolo[4,5-b]pyridin-6-yl)carbamoyl)pyridin-2-yl)-2-oxoimidazolidine-4-carboxylate] | 96% | 100% |  |  |
| O=C(Nc1cc2sc(N3CCOCC3)nc2nc1N1CCCCC1)c1cccc(N2CC(C(=O)O)NC2=O)n1 (stereo not drawn) [Example 49, 1-(6-((2-morpholino-5-(piperidin-1-yl)thiazolo[4,5-b]pyridin-6-yl)carbamoyl)pyridin-2-yl)-2-oxoimidazolidine-4-carboxylic acid] | 79% | 96% |  |  |
| O=C(Nc1cc2sc(N3CCOCC3)nc2nc1C1CC1)c1cncc(N2CCC(O)C2)n1 (stereo not drawn) [Example 50, N-(5-cyclopropyl-2-morpholinothiazolo[4,5-b]pyridin-6-yl)-6-(3-hydroxypyrrolidin-1-yl)pyrazine-2-carboxamide] | 67% | 95% |  |  |

Now from value to compound, other results behind:

| inhibition at 0.1 µM [1] | inhibition at 1 µM [2] | SMILES | inhibition at 0.1 µM (read-out: % inhibition of IRAK-4 @0.1 μM) | inhibition at 1 µM (read-out: % inhibition of IRAK-4 @ 1 μM) |
| --- | --- | --- | --- | --- |
| 90% | 93% | O=C(Nc1cc2sc(N3CCOCC3)nc2nc1N1CCC[C@@H](O)C1)c1cccc(N2CC[C@H](O)C2)n1 [Example 28, N-(5-((R)-3-hydroxypiperidin-1-yl)-2-morpholinothiazolo[4,5-b]pyridin-6-yl)-6-((S)-3-hydroxypyrrolidin-1-yl)picolinamide] |  |  |
| 98% | 99% | O=C(Nc1cc2sc(N3CCOCC3)nc2nc1N1CCCCC1)c1cccc(N2CCC[C@@H](O)C2)n1 [Example 30, (R)-6-(3-hydroxypiperidin-1-yl)-N-(2-morpholino-5-(piperidin-1-yl)thiazolo[4,5-b]pyridin-6-yl)picolinamide] |  |  |
| 97% | 99% | O=C(Nc1cc2sc(N3CCOCC3)nc2nc1N1CCCCC1)c1cccc(N2CC[C@@H](O)C2)n1 [Example 34, (R)-6-(3-hydroxypyrrolidin-1-yl)-N-(2-morpholino-5-(piperidin-1-yl)thiazolo[4,5-b]pyridin-6-yl)picolinamide] |  |  |
| 98% | 99% | O=C(Nc1cc2sc(N3CCOCC3)nc2nc1N1CCC[C@@H](O)C1)c1cccc(N2CCC(O)CC2)n1 [Example 38, (R)-6-(4-hydroxypiperidin-1-yl)-N-(5-(3-hydroxypiperidin-1-yl)-2-morpholinothiazolo[4,5-b]pyridin-6-yl)picolinamide] |  |  |
| 83% | 98% | O=C(Nc1cc2sc(N3CCOCC3)nc2nc1N1CCC[C@@H](O)C1)c1cccc(N2CCCCCC2)n1 [Example 39, (R)-6-(azepan-1-yl)-N-(5-(3-hydroxypiperidin-1-yl)-2-morpholinothiazolo[4,5-b]pyridin-6-yl)picolinamide] |  |  |
| 96% | 99% | O=C(Nc1cc2sc(N3CCOCC3)nc2nc1N1CCC[C@@H](O)C1)c1cccc(N2CCCCC2)n1 [Example 40, (R)-N-(5-(3-hydroxypiperidin-1-yl)-2-morpholinothiazolo[4,5-b]pyridin-6-yl)-6-(piperidin-1-yl)picolinamide] |  |  |
| 94% | 98% | O=C(Nc1cc2sc(N3CCOCC3)nc2nc1N1CCCCC1)c1cccc(N2CC[C@H](O)C2)n1 [Example 42, (S)-6-(3-hydroxypyrrolidin-1-yl)-N-(2-morpholino-5-(piperidin-1-yl)thiazolo[4,5-b]pyridin-6-yl)picolinamide hydrochloride] |  |  |
